# In publication PMC9228955, “Synthesis, Physicochemical, Labeling and In Vivo Characterization of ^44Sc-Labeled DO3AM-NI as a Hypoxia-Sensitive PET Probe” (Pharmaceuticals, 2022):
# Assays:
# [1] = Octanol/water partition coefficient (logP) of labeled complexes; format: physicochemical; settings: 1-octanol/water, triplicates
# Procedure: (§1) Subsequently, the octanol/water partition coefficient (logP) of the labeled complexes was determined to be −3.89 for [^68Ga]Ga(DO3AM-NI) and −2.59 for [^44Sc]Sc(DO3AM-NI). […] To assess the labeled compounds’ stability, the chelates were mixed with the solution of mouse plasma, Na2H2EDTA and oxalic acid, respectively. Aliquots were then taken at different time points (0, 60, 120 and 240 min) and injected into the radio-HPLC column, and the chromatograms were analyzed. After 240 min, the RCP of the samples was above 93% in all three cases.
# A 10 µL volume of [^68Ga]Ga(DO3AM-NI) and [^44Sc]Sc(DO3AM-NI) solution (~5 MBq) was mixed with 500 µL of 1-octanol and 490 µL of water in an Eppendorf vial, respectively. The mixture was shaken with a vortex shaker (600 rpm) for 10 min and centrifuged (6000 rpm) for 5 min. Then, 100 µL from the octanol phase and 1 μL from the aqueous phase were pipetted into vials, and the aqueous aliquot was diluted to 100 µL with water in order to minimize the effects of sample geometry and the high difference of activity concentrations in the two solvents. The radioactivity of the fractions was determined with a gamma counter. The measurements were performed in triplicates for both labeled compounds.
# KB tumors [2] = assay: Ex vivo biodistribution in KB tumor xenografts; parameters: species or system CB17 SCID mice; settings: for KB tumor uptake: 13 ± 1 days after subcutaneous tumor induction, n = 5, mean ± SD
# Procedure: For the assessment of the accumulation in the tumors of [^44Sc]Sc(DO3AM-NI) and [^68Ga]Ga(DO3AM-NI), ex vivo biodistribution studies were performed 90 and 240 min post injection using KB tumor xenografts.
# (§2) For tumor induction, SCID mice were injected with 5x10^6 KB tumor cells in 0.9% NaCl (100 µL) subcutaneously into the left shoulder area. The tumor growth was assessed by caliper measurements, and tumor size was calculated using the following formula: (largest diameter × smallest diameter^2)/2. In vivo experiments were carried out approximately 13 ± 1 days after […] injection of tumor cells at the tumor volume of approximately 110 mm^3.
# (§3) For the determination of ex vivo biodistribution of the radiotracers, control and KB tumor-bearing mice were injected intravenously with 8.42 ± 0.38 MBq of ^68Ga- or ^44Sc-labeled DO3AM-NI via the tail vein. Mice were euthanized with 5% isoflurane 90 min or 4 h after intravenous radiotracer injection. Three tissue samples were taken from the selected organs, and their weight and radioactivity were measured with a calibrated gamma counter (Perkin-Elmer Packard Cobra, Waltham, MA, USA). The radiotracer uptake was expressed as %ID/g tissue.
# KB tumors [3] = assay: In vivo PET/MRI imaging of KB tumor-bearing mice, quantitative SUV analysis; parameters: species or system CB17 SCID mice; settings: 240 min after injection
# Procedure: The tumor-specific accumulation of [^44Sc]Sc(DO3AM-NI) and [^68Ga]Ga(DO3AM-NI) was investigated by PET/MRI imaging 90 and 240 min after radiotracer injection using KB tumor-bearing mice. The subcutaneously growing KB tumors were clearly visualized using [^44Sc]Sc(DO3AM-NI) 90 and 240 min post injection with relatively higher SUVmean and SUVmax values (SUVmean: 1.46 ± 0.32 and SUVmax: 2.35 ± 0.47 at 90 min and SUVmean: 0.67 ± 0.03 and SUVmax: 1.55 ± 0.28 at 240 min). Lower accumulation was found in the same KB tumors by using the ^68Ga-labeled molecule (SUVmean: 0.79 ± 0.10, SUVmax: 1.94 ± 0.40 at 90 min and SUVmean: 0.51 ± 0.09 and SUVmax: 1.23 ± 0.10 at 240 min); however, this difference between the radiotracers was not significant (Figure 4E). […] In contrast, no significant differences were found between the T/M SUV values of the two radiotracers 90 min post injection (Figure 4F).
# as §2
# (§4) For in vivo imaging studies, healthy control and KB tumor-bearing CB17 SCID mice were injected with 8.42 ± 0.38 MBq of ^68Ga- or ^44Sc-labeled DO3AM-NI via the lateral tail vein 13 ± 1 days after the inoculation of KB tumor cells. Then, 65 and 225 min after radiotracer injection, mice were anaesthetized by 3% isoflurane (Forane) with a dedicated small animal anesthesia device and whole-body T1-weighted MRI scans were performed (3D GRE EXT multi-FOV; TR/TE 15/2 ms; phase: 100; FOV 60 mm; NEX 2) using the preclinical nanoScan PET/MRI system with 1 Tesla magnetic field (Mediso Ltd., Hungary). After MRI imaging, 20 min static whole-body PET scans were acquired (90 min and 4 h after radiotracer injection).
# Quantitative radiotracer uptake was expressed in terms of standardized uptake value (SUV), SUV = [VOI activity (Bq/mL)]/[injected activity (Bq)/animal weight (g)], assuming a density of 1 g/mL. Volumes of interest (VOI) were manually drawn around the edge of the organ or tumor activity using the InterView™ FUSION (Mediso Ltd., Hungary) image analysis software. Tumor-to-muscle (T/M) ratios were computed as the ratio between the activity in the tumor VOI and in the background (muscle) VOI. Skeletal muscles of the right shoulder area were used as background.
# [4] = Ex vivo biodistribution in healthy control SCID mice; parameters: species or system CB17 SCID mice; settings: mean ± SD
# Procedure: Ex vivo biodistribution studies were carried out 90 min and 240 min after intravenous injection of ^44Sc- or ^68Ga-labeled DO3AM-NI, and the accumulated activities of the organs and tissues were determined using a gamma counter. By the quantitative analysis of the ex vivo data, significant differences were found between the %ID/g values when ^44Sc- and ^68Ga-labeled DO3AM-NI accumulations were compared. […] In contrast, e.g., [^18F]fluorine- [28], [^131I]iodine- [29], [^99mTc]technetium- [30] and [^64Cu]copper-labeled nitroimidazole-based probes, due to their chemical properties, were mainly metabolized via the liver, and the large abdominal accumulation impaired the evaluation of abdominal tumors in the PET images. The ^44Sc- and ^68Ga-labeled nitroimidazole derivatives had more favorable properties in terms of the reporting and evaluation of PET images and due to their rapid elimination through the urinary system.
# as §3
# [5] = Stability of labeled complexes in mouse plasma, Na2H2EDTA and oxalic acid by radio-HPLC; format: in vitro ADME
# Procedure: as §1
# A 10 µL volume of [^68Ga]Ga(DO3AM-NI) and [^44Sc]Sc(DO3AM-NI) solution was added to the solution of 90 µL of mouse plasma, Na2H2EDTA (0.01 M) and oxalic acid (0.01 M), respectively. Samples were analyzed by radio-HPLC at the beginning and after 60, 120 and 240 min. The analytical conditions were the same as detailed for the quality control of the labeled compound.
# [6] = In vivo PET/MRI imaging of healthy control SCID mice, quantitative SUV analysis; parameters: species or system CB17 SCID mice; settings: 90 and 240 min after tracer injection
# Procedure: The biodistribution of ^44Sc- and ^68Ga-labeled DO3AM-NI was investigated using healthy control and KB tumor-bearing SCID mice. PET/MRI imaging and ex vivo studies were performed 90 and 240 min after intravenous injection of ^44Sc- or ^68Ga-labeled DO3AM-NI. By the qualitative analysis of the PET/MRI images, the kidneys and the bladder with urine were clearly visualized using both radiotracers at each investigated time point; however, in other abdominal and thoracic organs, low uptake was observed.
# as §4, with “After MRI imaging, 20 min static whole-body PET scans were acquired (90 min and 4 h after radiotracer injection).” left out
# Quantitative radiotracer uptake was expressed in terms of standardized uptake value (SUV), SUV = [VOI activity (Bq/mL)]/[injected activity (Bq)/animal weight (g)], assuming a density of 1 g/mL. […]
compound,measurement,setting,value
O=C([O-])CN1CCN(CC(=O)[O-])CCN(CC(=O)NCCn2ccnc2[N+](=O)[O-])CCN(CC(=O)[O-])CC1.[68Ga+3] [[^68Ga]Ga(DO3AM-NI)],octanol/water partition coefficient (logP),[1],−3.89
same,T/M (tumor-to-muscle ratio),KB tumors [2]; 90 min after injection,6.28 ± 1.11
same,KB tumor uptake,KB tumors [2]; 90 min after injection,0.62 ± 0.10 %ID/g
same,T/M (tumor-to-muscle ratio),KB tumors [2]; 240 min after injection,7.51 ± 1.13
same,KB tumor uptake,KB tumors [2]; 240 min after injection,0.46 ± 0.07 %ID/g
same,tumor-to-muscle ratio T/M SUVmax,KB tumors [3],41.72 ± 13.61
same,tumor-to-muscle ratio T/M SUVmean,KB tumors [3],85.66 ± 6.06
same,Blood uptake,[4]; 90 min after i.v. injection,0.81 ± 0.22 %ID/g
same,Fat uptake,[4]; 90 min after i.v. injection,0.13 ± 0.10 %ID/g
same,Heart uptake,[4]; 90 min after i.v. injection,0.26 ± 0.06 %ID/g
same,Kidney uptake,[4]; 90 min after i.v. injection,1.32 ± 0.47 %ID/g
same,Large intestine uptake,[4]; 90 min after i.v. injection,0.20 ± 0.13 %ID/g
same,Liver uptake,[4]; 90 min after i.v. injection,0.43 ± 0.11 %ID/g
same,Lung uptake,[4]; 90 min after i.v. injection,0.49 ± 0.08 %ID/g
same,Muscle uptake,[4]; 90 min after i.v. injection,0.10 ± 0.03 %ID/g
same,Small intestine uptake,[4]; 90 min after i.v. injection,0.25 ± 0.10 %ID/g
same,Spleen uptake,[4]; 90 min after i.v. injection,0.29 ± 0.14 %ID/g
same,Stomach uptake,[4]; 90 min after i.v. injection,0.21 ± 0.04 %ID/g
same,Urine uptake,[4]; 90 min after i.v. injection,65.94 ± 5.21 %ID/g
same,Blood uptake,[4]; 240 min after i.v. injection,0.65 ± 0.11 %ID/g
same,Fat uptake,[4]; 240 min after i.v. injection,0.12 ± 0.08 %ID/g
same,Heart uptake,[4]; 240 min after i.v. injection,0.22 ± 0.04 %ID/g
same,Kidney uptake,[4]; 240 min after i.v. injection,1.21 ± 0.17 %ID/g
same,Large intestine uptake,[4]; 240 min after i.v. injection,0.15 ± 0.06 %ID/g
same,Liver uptake,[4]; 240 min after i.v. injection,0.37 ± 0.10 %ID/g
same,Lung uptake,[4]; 240 min after i.v. injection,0.46 ± 0.09 %ID/g
same,Muscle uptake,[4]; 240 min after i.v. injection,0.06 ± 0.03 %ID/g
same,Small intestine uptake,[4]; 240 min after i.v. injection,0.14 ± 0.04 %ID/g
same,Spleen uptake,[4]; 240 min after i.v. injection,0.32 ± 0.18 %ID/g
same,Stomach uptake,[4]; 240 min after i.v. injection,0.22 ± 0.06 %ID/g
same,Urine uptake,[4]; 240 min after i.v. injection,17.08 ± 7.97 %ID/g
same,RCP after 240 min,[5]; Na2H2EDTA (0.01 M),above 93%
same,RCP after 240 min,[5]; mouse plasma,above 93%
same,RCP after 240 min,[5]; oxalic acid (0.01 M),above 93%
same,"uptake (SUV) in liver, spleen, kidney, intestines, lung, heart and brain compared with [^44Sc]Sc(DO3AM-NI)",[6],significantly (p ≤ 0.01) higher
